The source of these data is article PMC7617978, “Anti-trypanosomal quinazolines targeting lysyl-tRNA synthetases show partial efficacy in a mouse model of acute Chagas disease” (Science translational medicine, 2025).

One series has as its target CYP1A2 (Homo sapiens, UniProt P05177). Kind of series: In vitro CYP inhibition, 1A2. The format is in vitro ADME. On the procedure:
(§1) Compounds were screened for CYP inhibition activity using the protocol established by TCG Lifesciences (India). The activity of five CYP450 isoforms: 1A2; 2C9; 2D6, 3A4; and 2C19 was monitored in the presence of test or control (miconazole) compounds at 10 µM. Reactions were terminated after 10 min (30 min for CYP2C19) by the addition of acetonitrile, centrifuged and analysed via LC-MS/MS. […]

The target of a further series is CYP2C9 (Homo sapiens, UniProt P11712). Kind of series: In vitro CYP inhibition, 2C9. Type of series: in vitro ADME. On the procedure:
as §1

Series [1] has as its system T. cruzi (Tulahuen strain) intracellular amastigote (in L6 cells). The experiment in a line: Drug sensitivity assay, T. cruzi (Tulahuen)-infected L6 rat skeletal myoblasts. Type of series: cell-based. To be noted: Trypanosoma cruzi. On the procedure:
T. cruzi epimastigotes of the Silvio strain (MHOM/BR/78/Silvio; clone X10/7A) were maintained at 28°C in RPMI 1640 medium (Merck) supplemented with trypticase peptone (4.9 mg/ml), HEPES (20 mM), haemin (20 μg/ml), and foetal bovine serum (FBS, 10%), as previously described ([29]). T. cruzi metacyclic trypomastigotes were obtained and maintained, as previously described ([29]). Briefly, late-log epimastigotes were seeded at 10^6 cells/ml in RTH/FBS and differentiated into trypomastigotes after 7 days at 28°C. Vero cells were infected with trypomastigotes for 12 hours in Dulbecco modified Eagle medium (DMEM) supplemented with 5% FBS, at 37°C in the presence of 5% CO2. Infected Vero cells were washed 3× with DMEM/FBS to remove extracellular parasites, and medium was replaced every two days until trypomastigotes re-emerged. Three rounds of infection were performed before trypomastigotes were harvested for drug sensitivity assays. For drug sensitivity assays carried out at the Swiss Tropical Institute, a T. cruzi cell line (Tulahuen C2C4) expressing the β-galactosidase gene LacZ was propagated in L6 rat skeletal myoblasts (ATCC CRL-1458) as previously described ([37]).
Drug sensitivity assays with T. cruzi (Tulahuen)-infected L6 rat skeletal myoblasts were carried out as previously described ([37]).

The target in the next series is TcKRS1 (Trypanosoma cruzi, UniProt Q4D7V3). Kind of series: TcKRS1 inhibition assay using BIOMOL Green. Type of series: biochemical. To be noted: for IC50: recombinant TcKRS1, 14 μM ATP, 400 μM L-lysine, read-out: IC50 values (95% CI). As for the experimental part:
For TcKRS1 (TcCLB.508971.30), synthetic DNA codon-optimized for expression in E. coli and encoding amino acid residues 54–580 of the TcKRS1 protein was synthesized by Genscript and subcloned into a modified pET15b vector, with an N-terminal 6×His tag and a Tobacco Etch Virus (TEV) cleavage site. The resulting plasmid was transformed into E. coli BL21(DE3) (Stratagene) for expression. A 10-ml starter culture was grown at 37°C overnight, then used to inoculate 1 L of LB Autoinduction media that was grown for 48 h at 20°C. Cell pellets were resuspended in buffer containing 25 mM Tris, 500 mM NaCl, 20 mM imidazole, pH 8.5, and lysed using a continuous flow cell disrupter (Constant Systems). Recombinant TcKRS1 was purified using Ni^2+ affinity chromatography, the 6×His tag cleaved using TEV protease and the tag and protease removed by a second Ni^2+ affinity chromatography step. The protein was further purified via size exclusion chromatography, where TcKRS1 eluted with a mass consistent with the protein forming a dimer. Purified recombinant protein were concentrated to ~1 mg/ml in buffer (25 mM Tris, 150 mM NaCl, 10 % glycerol, pH 7.5) for assay.
(§2) The enzymatic activity of recombinant KRS was determined by monitoring the concentration of pyrophosphate released during the first step of the reaction catalyzed by recombinant TcKRS1. The pyrophosphate formed was converted to two inorganic phosphate molecules using a pyrophosphatase enzyme and concentrations of the resulting phosphate were measured using the BIOMOL Green reagent (Enzo Life Sciences). All screening assays were performed in 384-well, clear, flat-bottom plates (Greiner) at room temperature (~23°C) in 50 μl reaction volumes.
To generate IC50 data for test compounds, 10-point inhibitor dose-response curves were prepared in 384-well assay plates using an ECHO 550 acoustic dispenser (Labcyte). Following preparation of the inhibitor curves, assays were carried out for recombinant KRS enzymes as follows: TcKRS1 assay wells contained rTcKRS1 assay buffer (100 mM Tris; […]; HsKRS reactions contained HsKRS assay buffer (30 mM Tris; […].
(§3) All assays were performed by adding 25 μl of assay buffer with enzyme to compound-containing assay wells before the reaction was initiated with the addition of a 25 μl substrate mixture containing L-lysine, ATP and pyrophosphatase. […] Following a 6–h reaction at room temperature, the assays were stopped by the addition of 50 μl BIOMOL Green. The BIOMOL Green signal was allowed to develop for 30 min before the absorbance of each well was read at 650 nm using a PheraStar plate reader (BMG). All liquid-dispensing steps were carried out using a Thermo Scientific WellMate dispenser (Matrix).

The test system of series [2] is T. cruzi (Sylvio X10/7A1 strain) epimastigote. The experiment in a line: microbe, parasite or virus in culture. The format is cell-based. To be noted: for EC50: Trypanosoma cruzi; for Fold-shift (relative to WT): epimastigote.
In series [3] the test system is L. donovani (LdBOB) promastigote. Kind of series: Drug sensitivity assay, L. donovani promastigotes. The format is cell-based. To be noted: for EC50: Leishmania donovani.
The next series concerns the target CYP2C19 (Homo sapiens, UniProt P33261). Kind of series: In vitro CYP inhibition, 2C19. The format is in vitro ADME. As for the experimental part:
as §1

The next series addresses T1, hERG channel (Homo sapiens, UniProt Q12809).
T1 construct: purchased Invitrogen
The experiment in a line: In vitro hERG fluorescence polarization assay. The format is binding. To be noted: read-out: hERG inhibition (IC50 value). On the procedure:
In vitro hERG fluorescence polarization assay
Compounds were assessed for potential hERG channel inhibition using the Predictor® hERG Fluorescence Polarization Assay Kit (Invitrogen), as per manufacturer’s instructions.
Compounds were screened with test compounds at concentrations ranging from 0.0003 – 30
µM. Fluorescence polarization was measured using EnVision plate reader fitted with polarized filters (excitation: 531 nm; emission: 595 nm). IC50 values were determined using GraphPad

The next series has as its target T2, human KRS (Homo sapiens, UniProt Q15046).
T2 construct: made in house
Kind of series: Human KRS inhibition assay using BIOMOL Green. Type of series: biochemical. To be noted: for IC50: recombinant HsKRS, 3.5 μM ATP, 6 μM L-lysine, read-out: IC50 values (95% CI). On the procedure:
Cloning, expression and purification of recombinant HsKRS has been described previously ([21]).
as §2
To generate IC50 data for test compounds, 10-point inhibitor dose-response curves were prepared in 384-well assay plates using an ECHO 550 acoustic dispenser (Labcyte).
as §3
All IC50 curve fitting was undertaken using ActivityBase XE (version 7.7.1) from IDBS. Percentage inhibition curves for TcKRS1 and human KRS, were fitted to a four-parameter logistic dose-response equation (XLfit model 203), with pre-fitting for all four parameters, using the equation below, where A is no inhibition, B is maximum inhibition, C is the Log10 (IC50), D is the Hill slope and x is the inhibitor concentration. […]

The mark [4] stands for this setting: read-out: EC50 value, KRS1 OE (overexpressing), epimastigote.
The mark [5] stands for this setting: read-out: EC50 value, KRS1 S319L, epimastigote.
The mark [6] stands for this setting: read-out: EC50 value, WT, epimastigote.
[7] abbreviates: KRS1 OE, promastigote, read-out: EC50 value.
Setting [8] is: WT, promastigote, read-out: EC50 value.
Where [9] appears, read: read-out: EC50 value, KRS1 S324L, promastigote.

Like-named read-outs stand apart in the source and are kept apart here. Some results are limits rather than exact numbers.

Chain of TcKRS1 (Q4D7V3 entry or part of it): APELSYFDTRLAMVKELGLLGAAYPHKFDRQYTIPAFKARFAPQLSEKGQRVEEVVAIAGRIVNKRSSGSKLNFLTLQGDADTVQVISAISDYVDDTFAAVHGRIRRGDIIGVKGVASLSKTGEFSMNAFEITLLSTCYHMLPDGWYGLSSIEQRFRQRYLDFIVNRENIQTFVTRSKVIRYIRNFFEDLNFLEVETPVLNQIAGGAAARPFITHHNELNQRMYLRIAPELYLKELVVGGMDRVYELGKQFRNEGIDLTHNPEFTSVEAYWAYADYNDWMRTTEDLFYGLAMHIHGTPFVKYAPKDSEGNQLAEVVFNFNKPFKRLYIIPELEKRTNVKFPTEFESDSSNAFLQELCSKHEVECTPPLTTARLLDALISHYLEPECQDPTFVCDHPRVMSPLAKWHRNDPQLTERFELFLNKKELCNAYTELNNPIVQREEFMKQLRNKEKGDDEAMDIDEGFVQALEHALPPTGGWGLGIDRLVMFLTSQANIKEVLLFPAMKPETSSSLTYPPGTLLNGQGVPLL
T2 sequence (Q15046 whole entry): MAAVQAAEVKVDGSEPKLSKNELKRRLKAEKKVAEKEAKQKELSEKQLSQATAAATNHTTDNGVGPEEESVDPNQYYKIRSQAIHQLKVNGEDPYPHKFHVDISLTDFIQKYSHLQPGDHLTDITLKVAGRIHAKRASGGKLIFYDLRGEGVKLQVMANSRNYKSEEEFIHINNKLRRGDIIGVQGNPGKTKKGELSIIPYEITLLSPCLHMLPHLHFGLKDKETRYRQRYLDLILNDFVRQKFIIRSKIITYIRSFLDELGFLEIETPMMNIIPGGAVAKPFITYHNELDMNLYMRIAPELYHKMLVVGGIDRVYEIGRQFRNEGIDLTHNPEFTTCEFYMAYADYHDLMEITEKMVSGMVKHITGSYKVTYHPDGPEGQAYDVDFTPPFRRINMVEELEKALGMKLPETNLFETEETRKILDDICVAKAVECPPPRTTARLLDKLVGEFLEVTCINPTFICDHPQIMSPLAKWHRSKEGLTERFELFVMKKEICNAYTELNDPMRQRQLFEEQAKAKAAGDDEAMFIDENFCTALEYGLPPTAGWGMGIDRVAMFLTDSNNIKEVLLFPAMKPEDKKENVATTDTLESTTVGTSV
T1 sequence (Q12809 whole entry): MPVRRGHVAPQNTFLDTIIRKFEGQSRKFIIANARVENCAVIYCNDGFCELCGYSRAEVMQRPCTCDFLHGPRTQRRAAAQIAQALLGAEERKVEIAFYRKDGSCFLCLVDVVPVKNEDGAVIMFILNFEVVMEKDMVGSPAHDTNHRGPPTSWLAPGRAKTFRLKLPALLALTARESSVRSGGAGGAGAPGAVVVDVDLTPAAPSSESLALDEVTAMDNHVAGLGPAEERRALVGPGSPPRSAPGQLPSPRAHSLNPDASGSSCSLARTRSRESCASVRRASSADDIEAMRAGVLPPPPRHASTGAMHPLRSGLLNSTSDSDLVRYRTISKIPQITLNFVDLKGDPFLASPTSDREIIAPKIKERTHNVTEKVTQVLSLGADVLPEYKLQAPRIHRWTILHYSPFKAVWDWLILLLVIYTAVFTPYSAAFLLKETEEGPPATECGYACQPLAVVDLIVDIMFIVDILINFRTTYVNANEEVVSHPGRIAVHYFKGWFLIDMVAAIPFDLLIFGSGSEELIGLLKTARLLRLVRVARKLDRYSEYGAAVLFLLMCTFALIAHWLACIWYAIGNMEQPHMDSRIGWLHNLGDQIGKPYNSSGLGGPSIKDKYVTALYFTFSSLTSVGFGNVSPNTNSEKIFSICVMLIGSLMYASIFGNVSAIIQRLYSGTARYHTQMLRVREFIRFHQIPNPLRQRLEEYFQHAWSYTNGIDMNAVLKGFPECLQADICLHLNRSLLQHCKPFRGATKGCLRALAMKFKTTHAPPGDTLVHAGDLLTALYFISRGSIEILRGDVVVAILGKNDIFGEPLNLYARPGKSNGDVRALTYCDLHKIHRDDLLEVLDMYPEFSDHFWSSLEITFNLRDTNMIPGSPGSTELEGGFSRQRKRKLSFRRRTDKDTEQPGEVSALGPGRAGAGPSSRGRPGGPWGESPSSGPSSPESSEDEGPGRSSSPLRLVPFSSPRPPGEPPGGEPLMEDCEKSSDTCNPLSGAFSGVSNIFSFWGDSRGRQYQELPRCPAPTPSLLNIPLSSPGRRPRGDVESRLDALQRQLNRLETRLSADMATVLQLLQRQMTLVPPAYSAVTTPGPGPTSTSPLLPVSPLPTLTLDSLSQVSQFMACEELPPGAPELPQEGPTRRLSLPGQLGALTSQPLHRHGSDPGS
Chain of CYP2C19 (P33261 whole entry, species assumed): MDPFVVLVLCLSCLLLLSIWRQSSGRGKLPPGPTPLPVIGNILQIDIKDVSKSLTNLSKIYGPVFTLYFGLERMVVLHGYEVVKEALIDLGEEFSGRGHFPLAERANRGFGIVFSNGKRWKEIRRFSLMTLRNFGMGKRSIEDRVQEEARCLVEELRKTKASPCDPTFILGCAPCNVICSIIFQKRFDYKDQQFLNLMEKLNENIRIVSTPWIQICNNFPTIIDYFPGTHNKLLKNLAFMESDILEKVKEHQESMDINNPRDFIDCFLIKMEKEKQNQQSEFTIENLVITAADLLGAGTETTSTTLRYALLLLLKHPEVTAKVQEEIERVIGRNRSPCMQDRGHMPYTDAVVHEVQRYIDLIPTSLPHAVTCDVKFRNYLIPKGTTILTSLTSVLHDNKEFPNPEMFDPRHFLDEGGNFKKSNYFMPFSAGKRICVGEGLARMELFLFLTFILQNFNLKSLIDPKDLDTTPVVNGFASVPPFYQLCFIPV
Chain of CYP2C9 (P11712 whole entry): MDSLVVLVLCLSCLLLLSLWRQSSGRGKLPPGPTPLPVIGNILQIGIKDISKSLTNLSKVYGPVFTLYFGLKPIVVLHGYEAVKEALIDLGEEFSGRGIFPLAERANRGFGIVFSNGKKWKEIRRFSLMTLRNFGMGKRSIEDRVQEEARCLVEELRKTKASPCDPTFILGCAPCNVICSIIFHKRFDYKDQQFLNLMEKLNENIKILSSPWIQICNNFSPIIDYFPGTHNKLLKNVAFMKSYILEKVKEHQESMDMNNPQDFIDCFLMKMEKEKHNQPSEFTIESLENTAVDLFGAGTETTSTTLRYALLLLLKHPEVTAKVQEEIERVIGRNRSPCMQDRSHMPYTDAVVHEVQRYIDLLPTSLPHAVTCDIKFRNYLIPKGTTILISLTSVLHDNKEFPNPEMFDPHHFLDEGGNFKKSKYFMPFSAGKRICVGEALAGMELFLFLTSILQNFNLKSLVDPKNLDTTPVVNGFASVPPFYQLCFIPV
Chain of CYP1A2 (P05177 whole entry, canonical isoform): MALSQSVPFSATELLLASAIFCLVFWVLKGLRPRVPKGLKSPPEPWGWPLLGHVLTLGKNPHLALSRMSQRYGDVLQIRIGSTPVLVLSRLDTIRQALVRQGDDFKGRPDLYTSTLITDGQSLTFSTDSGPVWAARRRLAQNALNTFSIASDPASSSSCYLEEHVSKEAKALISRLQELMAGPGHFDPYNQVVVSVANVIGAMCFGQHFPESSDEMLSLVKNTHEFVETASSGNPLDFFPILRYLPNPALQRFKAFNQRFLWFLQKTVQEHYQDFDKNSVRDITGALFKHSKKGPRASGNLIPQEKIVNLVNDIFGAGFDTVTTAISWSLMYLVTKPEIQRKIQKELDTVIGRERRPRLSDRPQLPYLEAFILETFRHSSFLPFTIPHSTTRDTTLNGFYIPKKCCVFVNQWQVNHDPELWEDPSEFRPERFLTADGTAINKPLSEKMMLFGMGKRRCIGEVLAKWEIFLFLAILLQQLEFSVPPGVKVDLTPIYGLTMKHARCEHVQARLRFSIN

As for `Cc1nc(N)c2c(F)c(F)c(NC3CCCC3)c(F)c2n1` [DMU371, N7-Cyclopentyl-5,6,8-trifluoro-2-methylquinazoline-4,7-diamine], the results for the inhibition at 10 min, 10 µM against CYP1A2 and against CYP2C9 were 74.8 ± 0.5% and 8.6 ± 0.6%, respectively. Also, the EC50 in [1] (TULAHUEN, L6, read-out: EC50 value) was 0.233 ± 0.086 µM; in series [2] (setting [4]), 0.624 ± 0.014 µM; in [2] (setting [5]), 0.326 ± 0.026 µM; in [2] (setting [6]), 0.063 ± 0.0024 µM; in series [3] (setting [7]) it was 1.86 ± 0.063 µM; in series [3] (setting [8]), 0.524 ± 0.009 µM. Also, in series [3] (setting [9]), the EC50 stood at 1.74 ± 0.049 µM. The “extent of inhibition of TcKRS1” value at TcKRS1 is given as “full inhibition”. The results for the concentration for half-maximal inhibition (IC50) at TcKRS1, at hERG channel and on human KRS were 0.185 µM, 7.6 ± 1.3 µM and 9.8 µM, respectively. The compound further came in with an inhibition at 30 min, 10 µM at CYP2C19 of 6.1 ± 1.3%. Further, the “extent of inhibition of the human KRS1 enzyme” value at human KRS is “partial inhibition”.
For the compound `Cc1nc(N)c2c(F)c(F)c(SC3CCCCC3)c(F)c2n1` [DMU759, 7-(Cyclohexylthio)-5,6,8-trifluoro-2-methylquinazolin-4-amine], the figures for the inhibition at 10 min, 10 µM at CYP1A2 and at CYP2C9 were 61.5 ± 0.9% and 7.9 ± 0.8%, respectively. Also, the concentration giving a half-maximal response (EC50) in series [1] (WT Tulahuen strain, intracellular amastigote in L6 cells, read-out: EC50 value) was 0.018 ± 0.007 µM; in series [2] (setting [4]), 0.134 ± 0.003 µM; in [2] (setting [5]), 0.565 ± 0.041 µM; in series [2] (setting [6]), 0.014 ± 0.0003 µM; in [3] (setting [7]), 1.47 ± 0.056 µM; in series [3] (setting [8]), 0.115 ± 0.0001 µM. For the same compound, in series [3] (setting [9]), the EC50 worked out at 1.32 ± 0.032 µM. Besides, the “extent of inhibition of TcKRS1” value on TcKRS1 is on record as “full inhibition”. The IC50 on TcKRS1 was 0.015 µM; at hERG channel, 12.2 ± 1.1 µM; at human KRS, 7.17 µM. In addition, the “Fold-shift (relative to WT)” value in series [2] (KRS1 OE) is on record as 10 fold; in [2] (KRS1 S319L) it was 41 fold; in series [3] (KRS1 OE, promastigote), 13 fold; in series [3] (KRS1 S324L, promastigote), 12 fold. Further, in series [2] (in vitro, parasite not stated (discussion)), the “resistance conferred by mutation of a single amino acid in the KRS1 active site” value was over 20 fold. Moreover, the inhibition at 30 min, 10 µM against CYP2C19 came out at 12.8 ± 2.8%. Besides, the “extent of inhibition of the human KRS1 enzyme” value on human KRS was “partial inhibition”.
